Measured values: ChEMBL document CHEMBL4680330, “Soloxolone methyl, as a 18βH-glycyrrhetinic acid derivate, may result in endoplasmic reticulum stress to induce apoptosis in breast cancer cells” (Bioorg Med Chem, 2021)

Key:
[1] = tested on: MCF7; assay: Cytotoxicity against human MCF7 cells assessed as reduction in cell viability incubated for 48 hrs by ATP based luminometry; format: functional; conditions: MCF7, 48 h
[2] = tested on: Epidermoid carcinoma cell line; assay: Cytotoxicity against human Epidermoid carcinoma cell line; format: functional, cell-based
[3] = tested on: MDA-MB-231; assay: Induction of apoptosis in human MDA-MB-231 cells assessed as PARP level at 4.39 uM incubated for 24 hrs by Western blot analysis (reference value: 1); format: functional
[4] = tested on: MDA-MB-231; assay: Induction of apoptosis in human MDA-MB-231 cells assessed as cleaved PARP level at 4.39 uM incubated for 24 hrs by Western blot analysis (reference value: 1); format: functional
[5] = tested on: MDA-MB-231; assay: Induction of apoptosis in human MDA-MB-231 cells assessed as pro-caspase 8 level at 4.39 uM incubated for 24 hrs by Western blot analysis (reference value: 1); format: functional
[6] = tested on: MDA-MB-231; assay: Induction of apoptosis in human MDA-MB-231 cells assessed as cleaved pro-caspase 8 level at 4.39 uM incubated for 24 hrs by Western blot analysis (reference value: 1); format: functional
[7] = tested on: MDA-MB-231; assay: Induction of apoptosis in human MDA-MB-231 cells assessed as pro-caspase 3 level at 4.39 uM incubated for 24 hrs by Western blot analysis (reference value: 1); format: functional
[8] = tested on: MDA-MB-231; assay: Induction of apoptosis in human MDA-MB-231 cells assessed as cleaved pro-caspase 3 level at 4.39 uM incubated for 24 hrs by Western blot analysis (reference value: 1); format: functional
[9] = tested on: MDA-MB-231; assay: Induction of endoplasmic reticulum stress in human MDA-MB-231 cells assessed as IRE1-alpha expression at 4.39 uM incubated for 24 hrs by Western blot analysis (reference value: 1); format: functional
[10] = tested on: MDA-MB-231; assay: Induction of endoplasmic reticulum stress in human MDA-MB-231 cells assessed as BIP expression at 4.39 uM incubated for 24 hrs by Western blot analysis (reference value: 1); format: functional
[11] = tested on: MDA-MB-231; assay: Induction of endoplasmic reticulum stress in human MDA-MB-231 cells assessed as CHOP expression at 4.39 uM incubated for 24 hrs by Western blot analysis (reference value: 1); format: functional

Compound: CC1(C)[C@@H](O)CC[C@]2(C)[C@H]3C(=O)C=C4[C@@H]5C[C@@](C)(C(=O)O)CC[C@]5(C)CC[C@@]4(C)[C@]3(C)CC[C@@H]12 [ENOXOLONE]
- IC50 [1]: 32.6 µM
- IC50 [2]: ≥ 0.3 µM

Compound: COc1cccc2c1C(=O)c1c(O)c3c(c(O)c1C2=O)C[C@@](O)(C(=O)CO)C[C@@H]3O[C@H]1C[C@H](N)[C@H](O)[C@H](C)O1 [DOXORUBICIN]
- fold change (FC) [3]: 0.2
- fold change (FC) [4]: 23.2
- fold change (FC) [5]: 0.3
- fold change (FC) [6]: 0.6
- fold change (FC) [7]: 2.5
- fold change (FC) [8]: 2
- fold change (FC) [9]: 0.1
- fold change (FC) [10]: 0.1
- fold change (FC) [11]: 0.3
